Test results reported in ChEMBL document CHEMBL3861963, “Hypocriols A-F, Heterodimeric Botryane Ethers from Hypocrea sp., an Insect-Associated Fungus” (J Nat Prod, 2016).

Columns and labels:
Assay type in all cases: functional, cell-based
[1] = Antiproliferative activity against human HeLa cells measured after 24 hrs by CCK8 assay
[2] = Antiproliferative activity against human MCF7 cells measured after 24 hrs by CCK8 assay; settings: MCF7, 24 h
[3] = Antiproliferative activity against human HCT116 cells measured after 24 hrs by CCK8 assay; settings: HCT-116, 24 h
[4] = Antiproliferative activity against human A549 cells measured after 24 hrs by CCK8 assay; settings: A549, 24 h

SMILES | IC50 [1] [µM] | IC50 [2] [µM] | IC50 [3] [µM] | IC50 [4] [µM]
CC(=O)O[C@H]1C[C@@H](C)[C@@H]2[C@@H](O)[C@H](O[C@H]3OC[C@@]4(C)CC(C)(C)c5ccc(C)c3c54)[C@@]3(C)CC(C)(C)[C@H]1[C@]23O | 7.7 | 19.7 | 18.6 | 25.3
CC(=O)O[C@H]1C[C@@H](C)[C@@H]2[C@@H](OCc3c(C)ccc4c3[C@@](C)(CO)CC4(C)C)OC[C@@]3(C)CC(C)(C)[C@H]1[C@]23O | 4.6 | 23.6 | 2.7 | 15.3
CC(=O)O[C@H]1C[C@@H](C)[C@@H]2[C@@H](OC3OC[C@@]4(C)CC(C)(C)c5ccc(C)c3c54)[C@H](O)[C@@]3(C)CC(C)(C)[C@H]1[C@]23O (some centres undefined) | 3.1 | – | – | –
CO[C@H]1O[C@@H](O[C@H]2[C@H](O)[C@H]3[C@H](C)C[C@H](OC(C)=O)[C@H]4C(C)(C)C[C@@]2(C)[C@@]34O)[C@@]2(C)CC(C)(C)c3ccc(C)c1c32 | 3.8 | 34.2 | 18.8 | 46.7
CC(=O)O[C@H]1C[C@@H](C)[C@@H]2[C@@H](OC[C@@]3(C)CC(C)(C)c4ccc(C)c(CO)c43)OC[C@@]3(C)CC(C)(C)[C@H]1[C@]23O | 43.6 | 48.3 | 23 | –
CC(=O)O[C@H]1C[C@@H](C)[C@@H]2[C@@H](O)[C@H](O[C@@H]3OC[C@@]4(C)CC(C)(C)c5ccc(C)c3c54)[C@@]3(C)CC(C)(C)[C@H]1[C@]23O | 11.8 | 48.3 | 17.5 | –
